# Reference: PMC2806265, “Divergence of allosteric effects of rapacuronium on binding and function of muscarinic receptors” (BMC Pharmacology, 2009)
# Columns and labels:
# M5 muscarinic receptor [1] = target: T1, M5 muscarinic receptor (Homo sapiens, UniProt P08912); assay: [35S]GTPγS binding to membranes; assay type: biochemical; set-up: host or cells: CHO cells, stably transfected; membranes; settings: for EMAX of ACh on [^35S]GTPγS binding: fold of basal
# T1 sequence (P08912 1-532): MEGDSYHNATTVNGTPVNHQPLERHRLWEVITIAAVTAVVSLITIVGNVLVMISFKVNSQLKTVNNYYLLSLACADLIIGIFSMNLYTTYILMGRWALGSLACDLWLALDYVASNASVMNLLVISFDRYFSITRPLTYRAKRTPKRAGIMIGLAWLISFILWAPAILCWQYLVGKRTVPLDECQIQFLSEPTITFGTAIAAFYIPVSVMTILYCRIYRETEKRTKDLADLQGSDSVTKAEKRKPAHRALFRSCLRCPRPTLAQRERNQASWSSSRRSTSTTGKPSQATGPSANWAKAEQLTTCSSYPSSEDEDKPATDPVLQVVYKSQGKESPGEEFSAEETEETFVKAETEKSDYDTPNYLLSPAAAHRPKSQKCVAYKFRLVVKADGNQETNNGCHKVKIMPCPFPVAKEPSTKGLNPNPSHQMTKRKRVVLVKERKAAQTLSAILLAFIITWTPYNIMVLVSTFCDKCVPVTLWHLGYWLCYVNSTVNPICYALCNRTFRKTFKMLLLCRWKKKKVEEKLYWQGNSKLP
# Description: (§2) For determination of [^35S]GTPγS binding to G-proteins in membranes a final concentration of 200 pM (M1, M3 and M5 receptors) or 500 pM (M2 and M4 receptors) of [^35S]GTPγS was used. Incubation medium was supplemented with 5 μM (M1, M3 and M5 receptors) or 50 μM (M2 and M4 receptors) GDP. […] Incubation with [^35S]GTPγS was carried out for 20 min and free ligand was removed by filtration as described above. Filtration and washing with ice-cold water lasted for 9 s (wash-aspirate button time).
# M1 muscarinic receptor [2] = target: T2, M1 muscarinic receptor (Homo sapiens, UniProt P11229); assay: [35S]GTPγS binding to membranes; assay type: biochemical; settings: for EMAX of ACh on [^35S]GTPγS binding: fold of basal
# T2 construct: host or cells: CHO cells, stably transfected; membrane preparation
# T2 sequence (P11229 1-460): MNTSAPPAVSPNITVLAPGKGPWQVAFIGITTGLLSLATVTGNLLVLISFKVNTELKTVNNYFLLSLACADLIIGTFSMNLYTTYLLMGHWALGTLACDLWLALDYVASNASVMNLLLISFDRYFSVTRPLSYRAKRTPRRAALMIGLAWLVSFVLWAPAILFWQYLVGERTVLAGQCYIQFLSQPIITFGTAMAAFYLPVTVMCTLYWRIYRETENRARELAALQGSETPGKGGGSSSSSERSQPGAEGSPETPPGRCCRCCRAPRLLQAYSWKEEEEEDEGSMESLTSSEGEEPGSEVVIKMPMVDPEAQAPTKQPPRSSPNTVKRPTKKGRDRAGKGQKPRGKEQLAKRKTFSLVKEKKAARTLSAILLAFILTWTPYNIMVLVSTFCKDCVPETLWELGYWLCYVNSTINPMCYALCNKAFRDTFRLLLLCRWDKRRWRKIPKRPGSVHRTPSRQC
# Description: as §2
# M5 muscarinic receptor [3] = target: T1, M5 muscarinic receptor; assay: [3H]NMS saturation binding
# Description: BMAX, maximum binding capacity; KD, equilibrium dissociation constant.
# M3 muscarinic receptor [4] = target: T3, M3 muscarinic receptor (Homo sapiens, UniProt P20309); assay: Effect of rapacuronium on 1 nM [3H]NMS binding
# T3 construct: host or cells: CHO cells, stably transfected; membranes
# Description: (§1) Cooperativity factor greater than 1 denotes negative cooperativity and less than 1 positive cooperativity. Due to its log-normal error distribution factors of cooperativity are expressed as negative logarithms (pα) through the manuscript so negative values denotes negative cooperativity and positive value denotes positive cooperativity.
# M1 muscarinic receptor [5] = target: T2, M1 muscarinic receptor; assay: Effect of rapacuronium on 1 nM [3H]NMS binding
# Description: as §1
# M3 muscarinic receptor [6] = target: T3, M3 muscarinic receptor; assay: biochemical; settings: for EMAX of ACh on [^35S]GTPγS binding: fold of basal
# Description: as §2
# M5 muscarinic receptor [7] = target: T1, M5 muscarinic receptor; assay: Effect of rapacuronium on 1 nM [3H]NMS binding; set-up: host or cells: CHO cells, stably transfected; membranes
# Description: as §1
# M4 muscarinic receptor = target: T4, M4 muscarinic receptor (Homo sapiens, UniProt P08173); assay: Effect of rapacuronium on 1 nM [3H]NMS binding; set-up: host or cells: CHO cells, stably transfected; membranes
# T4 sequence (P08173 1-479): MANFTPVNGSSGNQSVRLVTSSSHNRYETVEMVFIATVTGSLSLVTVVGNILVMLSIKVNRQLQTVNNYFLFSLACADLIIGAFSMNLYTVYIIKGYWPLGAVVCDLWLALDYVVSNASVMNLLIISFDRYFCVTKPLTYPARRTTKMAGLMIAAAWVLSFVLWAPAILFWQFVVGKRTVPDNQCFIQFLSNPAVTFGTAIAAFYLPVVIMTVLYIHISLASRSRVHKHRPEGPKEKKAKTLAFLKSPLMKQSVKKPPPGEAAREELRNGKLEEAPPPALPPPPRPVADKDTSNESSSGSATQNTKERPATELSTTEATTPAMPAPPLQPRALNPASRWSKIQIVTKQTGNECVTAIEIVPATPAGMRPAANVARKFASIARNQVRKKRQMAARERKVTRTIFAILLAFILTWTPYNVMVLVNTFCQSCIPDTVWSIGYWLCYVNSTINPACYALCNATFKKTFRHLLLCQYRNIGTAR
# Description: as §1
# [8] = rapacuronium alone, normalized to absence of rapacuronium
# [9] = read-out: pKA of rapacuronium (converted)
# T3 sequence (P20309 whole entry): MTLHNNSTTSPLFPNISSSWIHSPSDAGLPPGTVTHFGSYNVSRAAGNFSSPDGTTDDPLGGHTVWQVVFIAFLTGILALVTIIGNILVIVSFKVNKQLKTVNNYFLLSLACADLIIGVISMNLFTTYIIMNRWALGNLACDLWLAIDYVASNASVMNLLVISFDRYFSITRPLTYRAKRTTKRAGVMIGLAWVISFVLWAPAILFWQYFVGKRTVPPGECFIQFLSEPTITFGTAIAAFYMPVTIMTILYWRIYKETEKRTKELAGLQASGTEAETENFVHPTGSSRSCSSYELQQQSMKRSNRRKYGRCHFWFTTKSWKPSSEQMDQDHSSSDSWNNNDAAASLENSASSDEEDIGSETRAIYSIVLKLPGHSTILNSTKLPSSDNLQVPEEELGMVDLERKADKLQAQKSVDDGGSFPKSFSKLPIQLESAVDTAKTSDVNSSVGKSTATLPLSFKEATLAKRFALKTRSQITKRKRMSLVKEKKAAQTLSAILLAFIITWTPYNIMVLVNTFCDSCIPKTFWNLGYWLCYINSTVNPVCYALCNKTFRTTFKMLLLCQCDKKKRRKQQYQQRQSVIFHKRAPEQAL
compound,measurement,setting,value
C=CC[N+]1([C@H]2C[C@H]3[C@@H]4CC[C@H]5C[C@H](OC(C)=O)[C@@H](N6CCCCC6)C[C@]5(C)[C@H]4CC[C@]3(C)[C@H]2OC(=O)CC)CCCCC1 [rapacuronium],EC50,M5 muscarinic receptor [1],61.7 µM
same,decrease in ACh EC50,"M5 muscarinic receptor [1]; M5, 0.1 μM rapacuronium",1.5 fold
same,decrease in ACh EC50,"M5 muscarinic receptor [1]; M5, 1 μM rapacuronium",4 fold
same,EMAX of ACh on [^35S]GTPγS binding,"M5 muscarinic receptor [1]; M5, + 0.1 μM rapacuronium",2.10 ± 0.09
same,EMAX of ACh on [^35S]GTPγS binding,"M5 muscarinic receptor [1]; M5, + 1 μM rapacuronium",2.04 ± 0.09
same,EMAX of ACh on [^35S]GTPγS binding,"M5 muscarinic receptor [1]; M5, + 10 μM rapacuronium",2.22 ± 0.09
same,EMAX of rapacuronium on [^35S]GTPγS binding,"M5 muscarinic receptor [1]; M5, rapacuronium alone, normalized to absence of rapacuronium",0.75 ± 0.07
same,decrease in ACh EC50,M1 muscarinic receptor [2]; 0.1 μM rapacuronium,1.5 fold
same,decrease in ACh EC50,M1 muscarinic receptor [2]; 1 μM rapacuronium,4 fold
same,EMAX of ACh on [^35S]GTPγS binding,M1 muscarinic receptor [2]; + 0.1 μM rapacuronium,2.35 ± 0.12
same,EMAX of ACh on [^35S]GTPγS binding,M1 muscarinic receptor [2]; + 1 μM rapacuronium,2.28 ± 0.12
same,EMAX of ACh on [^35S]GTPγS binding,M1 muscarinic receptor [2]; + 10 μM rapacuronium,2.27 ± 0.11
same,EMAX of rapacuronium on [^35S]GTPγS binding,M1 muscarinic receptor [2]; [8],0.76 ± 0.08
same,EC50,"M1 muscarinic receptor [2]; rapacuronium alone, read-out: pEC50 of rapacuronium on [^35S]GTPγS binding (converted)",50.1 µM
same,BMAX of [^3H]NMS,M5 muscarinic receptor [3]; + 10 μM rapacuronium,1.53 ± 0.15 fmol/μg of protein
same,BMAX of [^3H]NMS,M5 muscarinic receptor [3]; + 100 μM rapacuronium,1.33 ± 0.13 fmol/μg of protein
same,"pα, cooperativity with [^3H]NMS","M3 muscarinic receptor [4]; M3, negative value = negative cooperativity",-1.11 ± 0.05
same,Kd,M3 muscarinic receptor [4]; [9],17.8 µM
same,"pα, cooperativity with [^3H]NMS","M1 muscarinic receptor [5]; M1, negative value = negative cooperativity",-1.08 ± 0.05
same,Kd,M1 muscarinic receptor [5]; [9],4.27 µM
same,decrease in ACh EC50,M3 muscarinic receptor [6]; 0.1 μM rapacuronium,2 fold
same,decrease in ACh EC50,M3 muscarinic receptor [6]; 1 μM rapacuronium,2 fold
same,increase in ACh EC50,M3 muscarinic receptor [6]; 10 μM rapacuronium,about 3 fold
same,EMAX of ACh on [^35S]GTPγS binding,M3 muscarinic receptor [6]; + 0.1 μM rapacuronium,2.78 ± 0.11
same,EMAX of ACh on [^35S]GTPγS binding,M3 muscarinic receptor [6]; + 1 μM rapacuronium,2.52 ± 0.08
same,EMAX of ACh on [^35S]GTPγS binding,M3 muscarinic receptor [6]; + 10 μM rapacuronium,2.12 ± 0.09
same,EMAX of rapacuronium on [^35S]GTPγS binding,M3 muscarinic receptor [6]; [8],0.75 ± 0.07
same,EC50,"M3 muscarinic receptor [6]; rapacuronium alone, read-out: EC50 of lowering [^35S]GTPγS binding",76 µM
same,Emax at 0.1 µM,"M3 muscarinic receptor [6]; read-out: increase in ACh EMAX, 0.1 μM rapacuronium",~60%
same,Emax at 1 µM,"M3 muscarinic receptor [6]; read-out: increase in ACh EMAX, 1 μM rapacuronium",~35%
same,decrease in affinity of [^3H]NMS (cooperativity),M5 muscarinic receptor [7]; M5,35 fold
same,"pα, cooperativity with [^3H]NMS","M5 muscarinic receptor [7]; M5, negative value = negative cooperativity",-1.54 ± 0.05
same,Kd,M5 muscarinic receptor [7]; [9],10.7 µM
same,"pα, cooperativity with [^3H]NMS","M4 muscarinic receptor; M4, negative value = negative cooperativity",-1.40 ± 0.04
same,Kd,M4 muscarinic receptor; [9],3.8 µM
